Data from ChEMBL document CHEMBL3046556, “Microwave-assisted synthesis and antimicrobial screening of new imidazole derivatives bearing 4-thiazolidinone nucleus” (2013).
≈ marks a conversion by molar mass, not a printed value. Calls of active or inactive are those of the source. The calls are words filed in the database; no cut-off is given here.

How the values were obtained:
Streptococcus pyogenes [1] = experiment: Antibacterial activity against Streptococcus pyogenes MTCC 442 assessed as growth inhibition at 12.5 to 1000 ug/mL after 24 hr by NCCLS broth dilution method; type: functional, organism-based
Staphylococcus aureus [2] = experiment: Antibacterial activity against Staphylococcus aureus MTCC 96 assessed as growth inhibition at 12.5 to 1000 ug/mL after 24 hr by NCCLS broth dilution method; type: functional, organism-based
Pseudomonas aeruginosa [3] = experiment: Antibacterial activity against Pseudomonas aeruginosa MTCC 1688 assessed as growth inhibition at 12.5 to 1000 ug/mL after 24 hr by NCCLS broth dilution method; type: functional, organism-based
Escherichia coli [4] = experiment: Antibacterial activity against Escherichia coli MTCC 443 assessed as growth inhibition at 12.5 to 1000 ug/mL after 24 hr by NCCLS broth dilution method; type: functional, organism-based
Aspergillus clavatus = experiment: Antifungal activity against Aspergillus clavatus MTCC 1323 assessed as growth inhibition at 12.5 to 1000 ug/mL after 48 hr by broth dilution method; type: functional, organism-based
Aspergillus niger = experiment: Antifungal activity against Aspergillus niger MTCC 282 assessed as growth inhibition at 12.5 to 1000 ug/mL after 48 hr by broth dilution method; type: functional, organism-based
Candida albicans = experiment: Antifungal activity against Candida albicans MTCC 227 assessed as growth inhibition at 12.5 to 1000 ug/mL after 48 hr by broth dilution method; type: functional, organism-based
Streptococcus pyogenes [5] = experiment: Antibacterial activity against Streptococcus pyogenes MTCC 442 assessed as growth inhibition after 24 hr by NCCLS broth dilution method; type: functional; conditions: MTCC 442, 24 h
Staphylococcus aureus [6] = experiment: Antibacterial activity against Staphylococcus aureus MTCC 96 assessed as growth inhibition after 24 hr by NCCLS broth dilution method; type: functional; conditions: MTCC 96, 24 h
Pseudomonas aeruginosa [7] = experiment: Antibacterial activity against Pseudomonas aeruginosa MTCC 1688 assessed as growth inhibition after 24 hr by NCCLS broth dilution method; type: functional; conditions: MTCC 1688, 24 h
Escherichia coli [8] = experiment: Antibacterial activity against Escherichia coli MTCC 443 assessed as growth inhibition after 24 hr by NCCLS broth dilution method; type: functional; conditions: MTCC 443, 24 h

MIC (Streptococcus pyogenes [5]) [µg/mL]	MIC (Staphylococcus aureus [6]) [µg/mL]	MIC (Pseudomonas aeruginosa [7]) [µg/mL]	MIC (Escherichia coli [8]) [µg/mL]	Structure (SMILES)	growth inhibition (GI) (Streptococcus pyogenes [1])	growth inhibition (GI) (Staphylococcus aureus [2])	growth inhibition (GI) (Pseudomonas aeruginosa [3])	growth inhibition (GI) (Escherichia coli [4])	growth inhibition (GI) (Aspergillus clavatus)	growth inhibition (GI) (Aspergillus niger)	growth inhibition (GI) (Candida albicans)
				CC(=O)c1ccc(N2C(=O)/C(=C\c3ccc([N+](=O)[O-])cc3)N=C2C)cc1	inactive	inactive	inactive	inactive	inactive	inactive	inactive
				CC(=O)c1ccc(N2C(=O)/C(=C\c3cccc(C)c3)N=C2C)cc1	inactive	inactive	inactive	inactive	inactive	inactive	inactive
				CC(=O)c1ccc(N2C(=O)/C(=C\c3ccccc3F)N=C2C)cc1	inactive	inactive	inactive	inactive	inactive	inactive	inactive
	500 (≈ 1270 µM)		1000 (≈ 2540 µM)	CC1=N/C(=C/c2cccc(O)c2)C(=O)N1c1ccc(/C(C)=N/NC(N)=S)cc1	inactive		inactive		Active	Active	Active
				CC1=N/C(=C/c2ccc([N+](=O)[O-])cc2)C(=O)N1c1ccc(/C(C)=N/NC(N)=S)cc1	inactive	inactive	inactive	inactive	Active	Active	Active
	1000 (≈ 2990 µM)		1000 (≈ 2990 µM)	COc1ccc(/C=C2/N=C(C)N(c3ccc(C(C)=O)cc3)C2=O)cc1	inactive		inactive		inactive	inactive	inactive
				CC(=O)c1ccc(N2C(=O)/C(=C\c3ccc(F)cc3)N=C2C)cc1	inactive	inactive	inactive	inactive	inactive	inactive	inactive
				CC1=N/C(=C/c2ccccc2[N+](=O)[O-])C(=O)N1c1ccc(/C(C)=N/NC(N)=S)cc1	inactive	inactive	inactive	inactive	Active	Active	Active
				CC1=N/C(=C/c2ccccc2)C(=O)N1c1ccc(/C(C)=N/NC(N)=S)cc1	inactive	inactive	inactive	inactive	Active	Active	Active
				CC1=N/C(=C/c2ccccc2C)C(=O)N1c1ccc(/C(C)=N/NC(N)=S)cc1	inactive	inactive	inactive	inactive	Active	Active	Active
				CC1=N/C(=C/c2ccc(F)cc2)C(=O)N1c1ccc(/C(C)=N/NC(N)=S)cc1	inactive	inactive	inactive	inactive	Active	Active	Active
500 (≈ 1270 µM)	500 (≈ 1270 µM)	500 (≈ 1270 µM)		CC1=N/C(=C/c2ccccc2O)C(=O)N1c1ccc(/C(C)=N/NC(N)=S)cc1				inactive	Active	Active	Active
				CC1=N/C(=C/c2ccccc2Cl)C(=O)N1c1ccc(/C(C)=N/NC(N)=S)cc1	inactive	inactive	inactive	inactive	Active	Active	Active
	500 (≈ 1280 µM)		1000 (≈ 2550 µM)	CC1=N/C(=C/c2cccc(C)c2)C(=O)N1c1ccc(/C(C)=N/NC(N)=S)cc1	inactive		inactive		Active	Active	Active
				CC(=O)c1ccc(N2C(=O)/C(=C\c3cccc(O)c3)N=C2C)cc1	inactive	inactive	inactive	inactive	inactive	inactive	inactive
500 (≈ 1280 µM)	500 (≈ 1280 µM)	500 (≈ 1280 µM)		CC1=N/C(=C/c2ccc(C)cc2)C(=O)N1c1ccc(/C(C)=N/NC(N)=S)cc1				inactive	Active	Active	Active
				CC(=O)c1ccc(N2C(=O)/C(=C\c3ccccc3[N+](=O)[O-])N=C2C)cc1	inactive	inactive	inactive	inactive	inactive	inactive	inactive
				CC(=O)c1ccc(N2C(=O)/C(=C\c3ccccc3C)N=C2C)cc1	inactive	inactive	inactive	inactive	inactive	inactive	inactive
500 (≈ 1270 µM)	500 (≈ 1270 µM)	500 (≈ 1270 µM)		CC1=N/C(=C/c2ccc(O)cc2)C(=O)N1c1ccc(/C(C)=N/NC(N)=S)cc1				inactive	Active	Active	Active
				CC1=N/C(=C/c2ccccc2F)C(=O)N1c1ccc(/C(C)=N/NC(N)=S)cc1	inactive	inactive	inactive	inactive	Active	Active	Active
500 (≈ 1230 µM)	500 (≈ 1230 µM)	500 (≈ 1230 µM)		COc1ccc(/C=C2/N=C(C)N(c3ccc(/C(C)=N/NC(N)=S)cc3)C2=O)cc1				inactive	Active	Active	Active
				CC1=N/C(=C/c2ccc(Cl)cc2)C(=O)N1c1ccc(/C(C)=N/NC(N)=S)cc1	inactive	inactive	inactive	inactive	Active	Active	Active
				CC(=O)c1ccc(N2C(=O)/C(=C\c3ccccc3Cl)N=C2C)cc1	inactive	inactive	inactive	inactive	inactive	inactive	inactive
				COc1ccccc1/C=C1/N=C(C)N(c2ccc(/C(C)=N/NC(N)=S)cc2)C1=O	inactive	inactive	inactive	inactive	Active	Active	Active
				CC(=O)c1ccc(N2C(=O)/C(=C\c3ccccc3)N=C2C)cc1	inactive	inactive	inactive	inactive	inactive	inactive	inactive
				CC(=O)c1ccc(N2C(=O)/C(=C\c3ccc(Cl)cc3)N=C2C)cc1	inactive	inactive	inactive	inactive	inactive	inactive	inactive

Structure (SMILES)	MIC (Streptococcus pyogenes [5]) [µg/mL]	MIC (Staphylococcus aureus [6]) [µg/mL]	MIC (Pseudomonas aeruginosa [7]) [µg/mL]	MIC (Escherichia coli [8]) [µg/mL]	growth inhibition (GI) (Streptococcus pyogenes [1])	growth inhibition (GI) (Staphylococcus aureus [2])	growth inhibition (GI) (Pseudomonas aeruginosa [3])	growth inhibition (GI) (Escherichia coli [4])	growth inhibition (GI) (Aspergillus clavatus)	growth inhibition (GI) (Aspergillus niger)	growth inhibition (GI) (Candida albicans)
CC1(C)S[C@@H]2[C@H](NC(=O)[C@H](N)c3ccccc3)C(=O)N2[C@H]1C(=O)O [AMPICILLIN]	100 (≈ 286 µM)	100 (≈ 286 µM)	100 (≈ 286 µM)	250 (≈ 715 µM)							
